“Also recorded” adds a separate entry of the source. Where a SMILES comes first, the peptide text is derived from it. Bridges are numbered along the chain shown (N, C = ends). Roman numbers before positions name the chains, in order. Where no end group is shown, it is not given here. [ ]: non-standard residue; d: D form. AEEA = NCCOCCOCC(=O)O
Key:
TNFα = assay: TNFα-induced cytotoxicity (control); type: cell-based; conditions: specificity control
Procedure: (§1) In these assays, CD40L induced CD86 expression in a concentration-dependent manner in the absence of a peptidyl inhibitor of the present invention with an EC50 value of about 9 nM (FIG. 6d, 6e). As a control in these assays, LPS-induced expression of CD86 mediated by the Toll-like receptors TLR 2/4, and TNFα-induced cytoxicity, were also assayed to exclude effects mediated by ligands other than CD40L.

[1] = molecular target: CD40L-induced CD86 expression on primary B-cells (Homo sapiens, UniProt P29965); assay: Inhibition of CD40L-induced CD86 expression on primary B-cells (FACS); type: cell-based; conditions: for EC50: monomeric and dimeric peptides, Table 7, read-out: EC50; for inhibition of CD40L-induced CD86 expression (qualitative): figure legends
CD40L-induced CD86 expression on primary B-cells, sequence (P29965 whole entry): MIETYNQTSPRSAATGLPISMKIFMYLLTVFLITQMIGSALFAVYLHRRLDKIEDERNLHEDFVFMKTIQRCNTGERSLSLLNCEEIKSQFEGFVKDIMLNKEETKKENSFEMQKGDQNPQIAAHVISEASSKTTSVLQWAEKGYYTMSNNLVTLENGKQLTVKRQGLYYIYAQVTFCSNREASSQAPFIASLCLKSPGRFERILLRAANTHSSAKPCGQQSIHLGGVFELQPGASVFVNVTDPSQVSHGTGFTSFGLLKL
CD40L-induced CD86 expression on primary B-cells, sequence (P25942 21-277 partner): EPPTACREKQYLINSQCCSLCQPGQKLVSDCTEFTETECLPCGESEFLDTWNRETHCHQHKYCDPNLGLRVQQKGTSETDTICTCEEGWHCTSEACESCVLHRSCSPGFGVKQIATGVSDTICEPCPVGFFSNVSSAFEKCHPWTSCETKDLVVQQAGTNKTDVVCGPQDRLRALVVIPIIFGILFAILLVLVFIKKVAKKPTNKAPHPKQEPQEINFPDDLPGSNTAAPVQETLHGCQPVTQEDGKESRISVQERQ
Procedure: In one example, the ability of a peptide, analog or derivative of the invention to inhibit or reduce or delay expression of CD86 on primary B-cells was determined in the presence and absence of the peptides, analogs and derivatives of the invention. In particular, CD86 expression was determined by FACS.
as §1
In a similar series of bioassays, dimeric forms of the CD40L peptide inhibitors were also tested for their ability to inhibit or reduce CD40L-induced expression of CD86 on primary B-cells.

CD40L/CD40-Fc = molecular target: T1, CD40L/CD40-Fc (Homo sapiens, UniProt P29965); assay: Chemiluminescent proximity assay (Alphascreen) of CD40L-CD40 interaction; type: binding; conditions: for EC50: monomeric and dimeric peptides, Table 5, read-out: EC50; for inhibition of CD40L-CD40 interaction relative to monomeric peptide controls: qualitative
T1 sequence (P29965 113-261 limits assumed): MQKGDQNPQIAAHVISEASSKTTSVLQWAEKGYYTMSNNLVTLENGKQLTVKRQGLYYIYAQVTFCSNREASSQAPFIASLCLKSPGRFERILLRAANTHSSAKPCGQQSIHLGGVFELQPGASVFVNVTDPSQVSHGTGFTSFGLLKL
Procedure: In one example, the Alphascreen assay (PerkinElmer) was employed according to the manufacturer's instructions.
Homodimers and heterodimers were also assayed by chemiluminescent proximity assay for their ability to inhibit CD40L-CD40 interaction.

[2] = system: T cells from transgenic D011.10 mice; assay: Antigen-specific T-cell proliferation assay; type: cell-based; conditions: 10 μM or 20 μM peptide
Procedure: Briefly, pooled DLN (consisting parathymic and posterior mediastinal nodes) were collected from transgenic D011.10 mice engineered to express ovalbumin-specific T cell receptors (TCRs). Enriched T-cell suspensions were prepared and stimulated with 10 μg/ml ovalbumin in the presence or absence of 10 μM or 20 μM concentration of anti-CD40L peptidyl inhibitors. The peptides tested were PEGylated serine derivatives and/or chiral analogs of peptides CD40L M1—6, CD40L M1—9, CD40L M1—18, CD40L M1—30, CD40L M1—42, CD40L M1—50, CD40L M7—82 and CD40L M7—206. Cells were cultured for 24-72 hrs and then pulsed with [^3H]thymidine for another 24 hr to measure T-cell proliferation.

CD40L = molecular target: T2, CD40L (Homo sapiens, UniProt P29965); assay: Octet Red label-free association/dissociation analysis; type: binding; conditions: versus CD40L M1—206
T2 construct: measures of the “on” and “off” rates of the peptides relative to soluble CD40L
T2 sequence (P29965 113-261 limits assumed): T1 sequence (P29965 113-261 limits assumed)
Procedure: Label-free analyses of the associations and dissociations of base peptides and serine derivatives of base peptides with the CD40L target protein were performed using the Octet Red system (ForteBio, Inc., USA) according to the manufacturer's instructions. These analyses provide kinetic constants of CD40L binding activity, especially the association rate constant (Ka) and dissociation rate constant (Kd) of binding, i.e., measures of the “on” and “off” rates of the peptides relative to soluble CD40L.

CC(C)C[C@H](NC(=O)[C@H](Cc1ccc(O)cc1)NC(=O)[C@H](CC(=O)O)NC(=O)[C@H](CCCNC(=N)N)NC(=O)[C@H](CCCNC(=N)N)NC(=O)[C@H](Cc1ccccc1)NC(=O)[C@H](CO)NC(=O)[C@H](CO)NC(=O)[C@H](Cc1ccc(O)cc1)NC(=O)[C@H](Cc1ccccc1)NC(=O)[C@H](CCCNC(=N)N)NC(=O)[C@H](Cc1ccccc1)NC(=O)[C@H](CC(C)C)NC(=O)[C@H](Cc1ccccc1)NC(=O)[C@H](Cc1ccccc1)NC(=O)[C@H](CC(C)C)NC(=O)[C@H](CC(N)=O)NC(=O)[C@H](Cc1ccc(O)cc1)NC(=O)[C@H](CCCNC(=N)N)NC(=O)[C@@H]1CCCN1C(=O)[C@@H]1CCCN1)C(=O)N[C@@H](Cc1ccc(O)cc1)C(=O)N[C@@H](Cc1ccccc1)C(=O)O [CD40L M1_9s] (H-PPRYNLFFLFRFYSSFRRDYLYF-OH; N-terminus and C-terminus assumed)
inhibition of rTNFα-induced cytoxicity (TNFα): lack of inhibition; also recorded: no significant inhibition
EC50 [1]: 564 nM
EC50 (CD40L/CD40-Fc): 564 nM

CC[C@H](C)[C@H](NC(=O)[C@H](CO)NC(=O)[C@H](Cc1c[nH]c2ccccc12)NC(=O)[C@H](CCC(N)=O)NC(=O)[C@@H](NC(=O)[C@@H]1CCCN1C(=O)[C@H](Cc1ccccc1)NC(=O)[C@H](Cc1ccccc1)NC(=O)[C@H](Cc1c[nH]c2ccccc12)NC(=O)CNC(=O)[C@H](Cc1ccc(O)cc1)NC(=O)[C@H](CCCCN)NC(=O)[C@H](CC(C)C)NC(=O)[C@@H](NC(=O)[C@H](Cc1c[nH]cn1)NC(=O)[C@H](CO)NC(=O)[C@H](CCCNC(=N)N)NC(=O)[C@H](Cc1ccc(O)cc1)NC(=O)[C@@H]1CCCN1C(=O)[C@@H](NC(=O)[C@H](Cc1ccccc1)NC(=O)[C@@H]1CCCN1C(=O)[C@@H](N)CC(C)C)C(C)C)C(C)C)C(C)C)C(=O)N[C@@H](Cc1ccccc1)C(=O)N[C@@H](C)C(=O)N[C@H](C(=O)N[C@@H](CC(C)C)C(=O)N1CCC[C@H]1C(=O)N[C@@H](Cc1ccccc1)C(=O)N[C@@H](CCC(N)=O)C(=O)N[C@@H](Cc1ccc(O)cc1)C(=O)N[C@@H](CC(C)C)C(=O)N[C@@H](Cc1c[nH]cn1)C(=O)N[C@@H](CCCNC(=N)N)C(=O)N[C@@H](CO)C(=O)N[C@@H](CCCNC(=N)N)C(=O)O)C(C)C [CD40L M1_18s] (H-LPFVPYRSHVLKYGWFFPVQWSIFAVLPFQYLHRSR-OH; N-terminus and C-terminus assumed)
inhibition of rTNFα-induced cytoxicity (TNFα; listed as M1—18*S): lack of inhibition
inhibition of rTNFα-induced cytoxicity (TNFα; listed as M1—18S): no significant inhibition

CC[C@H](C)[C@H](NC(=O)[C@H](CO)NC(=O)[C@H](Cc1ccccc1)NC(=O)[C@@H]1CCCN1C(=O)[C@@H]1CCCN1C(=O)[C@H](CO)NC(=O)[C@H](Cc1ccccc1)NC(=O)[C@H](Cc1ccccc1)NC(=O)[C@H](Cc1ccccc1)NC(=O)[C@H](CC(C)C)NC(=O)[C@H](CC(C)C)NC(=O)[C@@H](N)CC(C)C)C(=O)N[C@@H](Cc1ccccc1)C(=O)N[C@@H](CO)C(=O)N[C@@H](Cc1ccccc1)C(=O)N[C@@H](CO)C(=O)N[C@@H](CC(C)C)C(=O)N[C@H](C(=O)N[C@H](C(=O)N[C@@H](CC(C)C)C(=O)N[C@@H](CO)C(=O)O)[C@@H](C)O)[C@@H](C)O [Peptide M7_189S] (H-LLLFFFSPPFSIFSFSLTTLS-OH)
EC50 [1]: 176 nM
EC50 (CD40L/CD40-Fc): 177 nM

AQWWHHRFSFLGAIQFFERGAAD [CD40L M1_30rd]
relative performance in T-cell proliferation assay [2]: best-performing

HPFSIKNVFSIWNFFSVY [CD40L M1_6s]
inhibition of rTNFα-induced cytoxicity (TNFα): lack of inhibition; also recorded: no significant inhibition

I: H-C[AEEA]LLLFFFSPPFSIFSFSLTTLS / II: H-C[AEEA]HPFSIKNVFSIWNFFSVY (disulfide I:1-II:1) [Cys_M1_6S-Cys_M1_189S heterodimer]
inhibition of CD40L-induced CD86 expression (qualitative) [1]: enhanced inhibition
inhibition of CD40L-CD40 interaction relative to monomeric peptide controls (CD40L/CD40-Fc): enhanced inhibition

I: H-C[AEEA]PPRYNLFFLFRFYSSFRRDYLYF / II: H-C[AEEA]HPFSIKNVFSIWNFFSVY (disulfide I:1-II:1) [Cys_M1_6S-Cys_M1_9S heterodimer]
inhibition of CD40L-induced CD86 expression (qualitative) [1]: enhanced inhibition
inhibition of CD40L-CD40 interaction relative to monomeric peptide controls (CD40L/CD40-Fc): enhanced inhibition

PFTWRPTIFWIIQLIVYMRHFGGGGSRSELLRENICRYVSLFDHPLQRNTPLDELRFVIFDTETSGFDLVKDRILSIR [CD40L D1_0014]
fold higher affinity for CD40L than base monomeric peptide (CD40L): 6 fold

SKVRMQFDIINFPVNVGFLVFSH [CD40L M1_42rd]
relative performance in T-cell proliferation assay [2]: best-performing
